Positions of bridges follow the written chain, without caps; N, C: chain ends. Non-standard residues stand in square brackets, D forms with d. Residues, ends and D or L forms follow the SMILES beside them. pS = N[C@@H](COP(=O)(O)O)C(=O)O
Key:
[1] = In vitro metabolism in mouse jejunum loop fluid; assay type: in vitro ADME; details: 37° C.; for metabolism in the control reaction: control reaction (1 M Tris-HCl), 120 minute incubation
Procedure: The purpose of this study was to determine the stability of phosphorylated peptides in mouse jejunal loop fluid. […] The isotopically labeled peptide 2 was synthesized with ^13C, ^15N-labeled alanine and leucine (i.e., with a sequence CCpS[^13C6, ^15N]LCCNP[^13C6, ^15N]ACTGC).
Each peptide was synthesized by American Peptide Company, Inc., and was stored desiccated at −20° C. A 1 mg/mL solution for each of the non-labeled peptides was prepared in 1 M tris (hydroxymethyl) aminomethane hydrochloride (Tris-HCl), pH 8 just prior to conducting the mouse intestinal loop fluid assay. A 500 ng/mL solution of ^13C, ^15N-labeled peptide 2 was prepared in 0.1% formic acid in water and was utilized to dilute the jejunum samples for post-assay LC-MS/MS analysis.
To collect the fluid, mice were fasted overnight with full access to water. They were then anesthetized with isofluorane for surgery and subjected to laparotomy in which the small intestine was exteriorized. Jejunum loops of 3 to 4 cm in length were made with sutures starting at 7 cm from the pyloric sphincter of the stomach. Once the loops were formed, they were injected with 200 μL of phosphate buffered saline (PBS) buffer (10 mM, pH 7.4). The abdominal wall and skin of the animals were then sutured, and the animals were allowed to recover for 30 minutes. Following recovery, the animals were sacrificed, the loops were then excised and the fluid inside was recovered and stored at −80° C. until use.
For each peptide, 254 of the 1 mg/mL peptide stock solution was added to 25 of 1 M Tris-HCl and 25 μL of 10× calf intestinal phosphatase (CIP) buffer containing 500 mM Tris-HCl, 1 M sodium chloride (NaCl), […] (MgCl2), pH 8. The reactions were initiated by adding 175 pit of the mouse jejunum loop fluid or 175 μL of the 1 M Tris-HCl pH8 buffer for the control reactions. The final concentration of each peptide was 100 μg/mL. The reactions were continuously mixed and maintained at 37° C. on a plate shaker. At 0, 2, 5, 10, 20, 30, 60, 90 and 120 minutes after adding the mouse intestinal loop fluid, a 25 μL aliquot was taken and added to 25 μL of 4° C. 12% trichloroacetic acid to stop the reaction. An additional 200 μL of 0.1% formic acid in water was added to these reactions for dilution purposes. These samples were then further diluted by taking 20 μL of each sample and adding it to 480 μL of 0.1% formic acid in water containing 500 ng/mL of the internal standard ^13C, ^15N-labeled peptide 2.
All samples were analyzed using an Applied Biosystems/MDS SCIEX API 4000 triple quadrupole mass spectrometer equipped with a high-performance liquid chromatography (HPLC) system. The mass spectrometer was operated in multiple reaction monitoring (MRM) mode, with resolution set to 1.2 Da.
The LC-MS/MS data were processed using Analyst version 1.4.2 software (Applied Biosystems/MDS SCIEX). The peak area ratio (ratio of analyte peak area to internal standard peak area) was used to calculate the percent remaining of each peptide.

[2] = test system: Potato acid phosphatase (PoAP); assay: Acid phosphatase reaction, potato acid phosphatase; assay type: in vitro ADME; details: Potato acid phosphatase pH 5, 90 minutes at 37° C.
Procedure: (§1) For the alkaline phosphatase reactions, peptide stocks were prepared at 1 mg/mL in 0.1 M Tris-HCl pH 8, which were stored at −20° C. until assays were conducted. For the acid phosphatase reactions, peptide stocks were prepared at 1 mg/mL in 50 mM sodium phosphate pH 6, which was stored at −20° C. until assays were conducted.
(§2) Potato acid phosphatase (PoAP) was obtained from Sigma, St. Louis, Miss. Cat #P1146 and human prostate acid phosphatase (HuPrAP) was obtained from MP Biochemicals, Solon, Ohio. Cat #153872. The acid phosphatases were dissolved to provide a solution containing 0.5 units AP/4 using 50 mM sodium acetate pH 5, 0.2 mM MgCl2. The acid phosphatase reactions were assembled in 20 μL quantities containing: • 2 μL 10× acid phosphatase buffer (500 mM sodium acetate pH 5, 2 mM MgCl2) • 2 μL peptide stock (1 mg/mL) • 12 μL H2O • 4 μL acid phosphatase (0.5 or 2 units)
(§3) The reaction solutions were mixed gently and incubated for 90 minutes at 37° C. The reaction solutions were stored at −20° C. for later analysis. For analysis, 7.5 μL acid phosphatase reactions were diluted to 50 μL with 0.1% formic acid in water to a final concentration of 10 μM. The control reactions for enzyme activity were assembled and diluted to 10 mM p-nitrophenylphosphate in place of peptide. After incubation, the reactions were diluted with 0.1 mL of 100 mM borate buffer pH 9 and read at the absorbance of 405 nm to monitor p-nitrophenol appearance.

[3] = molecular target: T1, Calf intestinal alkaline phosphatase (CIP) (Bos taurus, UniProt P19111); assay: Alkaline phosphatase reaction on peptide substrates; assay type: in vitro ADME; details: for Dephospho (%) / Remaining (%): Alkaline phosphatase pH 8, 90 minutes at 37° C.
T1 construct: purchased New England BioLabs M0290S
Procedure: as §1
Calf intestinal alkaline phosphatase (CIP) was obtained from New England BioLabs, Ipswich, Mass. Cat # M0290S. The CIP reaction solution was prepared by dilution with buffer (50 mM KCl, 10 mM Tris-HCl pH 8, 1 mM MgCl2, 50% glycerol) to 0.5 units/4. The alkaline phosphatase reaction solutions were assembled in 20 μL quantities containing:
2 μL 10×CIP buffer (1M NaCl, 500 mM Tris-HCl pH 8, 100 mM MgCl2)
2 μL peptide stock (1 mg/mL)
4 μL alkaline phosphatase (0, 0.5 or 2 units)
The reaction solutions were mixed gently and incubated for 90 minutes at 37° C. These reaction solutions were stored at −20° C. until analysis. For analysis, the reaction solutions were diluted from 7.5 μL of CIP treated peptide to 50 μL with 0.1% formic acid in water to a final concentration of 10 μM.
Control reactions were assembled for enzyme activity containing 10 mM p-nitrophenylphosphate in place of peptide. After incubation, the reactions were diluted with 0.1 mL of 100 mM borate buffer pH 9 and read at the absorbance of 405 nm to monitor p-nitrophenol appearance.

[4] = molecular target: T2, human prostate acid phosphatase (HuPrAP) (Homo sapiens, UniProt P15309); assay: Acid phosphatase reaction, human prostate acid phosphatase; assay type: in vitro ADME; details: Human prostatic acid phosphatase pH 5, 90 minutes at 37° C.
T2 construct: purchased MP Biochemicals 153872
T2 sequence (P15309 33-386): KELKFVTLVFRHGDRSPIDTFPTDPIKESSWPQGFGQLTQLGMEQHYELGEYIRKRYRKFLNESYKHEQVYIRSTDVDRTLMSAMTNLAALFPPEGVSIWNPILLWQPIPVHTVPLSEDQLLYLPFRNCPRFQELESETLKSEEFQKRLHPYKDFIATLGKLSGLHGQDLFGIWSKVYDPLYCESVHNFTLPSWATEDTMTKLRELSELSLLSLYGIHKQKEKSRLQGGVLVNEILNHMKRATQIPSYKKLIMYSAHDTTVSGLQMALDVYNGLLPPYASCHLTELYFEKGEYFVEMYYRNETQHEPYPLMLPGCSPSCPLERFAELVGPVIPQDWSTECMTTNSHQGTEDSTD
Procedure: as §1, §2, §3

[5] = after oral administration at therapeutic dose levels; cited from earlier work

T1 sequence (P19111 20-506): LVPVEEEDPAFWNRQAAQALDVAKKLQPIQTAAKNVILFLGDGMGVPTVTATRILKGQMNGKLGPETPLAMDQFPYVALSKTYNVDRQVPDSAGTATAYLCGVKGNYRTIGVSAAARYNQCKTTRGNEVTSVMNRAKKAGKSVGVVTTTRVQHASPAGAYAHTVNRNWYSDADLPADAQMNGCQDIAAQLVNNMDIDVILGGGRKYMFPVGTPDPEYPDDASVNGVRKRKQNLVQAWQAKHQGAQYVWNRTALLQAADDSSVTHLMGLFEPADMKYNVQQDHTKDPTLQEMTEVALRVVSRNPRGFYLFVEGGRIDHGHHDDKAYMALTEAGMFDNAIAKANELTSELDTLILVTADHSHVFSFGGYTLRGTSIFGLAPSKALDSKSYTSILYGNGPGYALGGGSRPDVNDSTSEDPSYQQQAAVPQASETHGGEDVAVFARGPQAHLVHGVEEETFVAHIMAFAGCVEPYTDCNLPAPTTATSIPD

Compound | metabolism in the control reaction [1] | degradation in mouse intestinal fluid compared with peptide 2 [1] | Dephospho (%) [2] | Dephospho (%) [3] | Remaining (%) [3] | Dephospho (%) [4] | other results
CC(C)C[C@@H]1NC(=O)[C@H](CO)NC(=O)[C@@H]2CSSC[C@@H]3NC(=O)[C@H](C)NC(=O)[C@@H]4CCCN4C(=O)[C@H](CC(N)=O)NC(=O)[C@H](CSSC[C@H](N)C(=O)N2)NC(=O)[C@H](CSSC[C@@H](C(=O)O)NC(=O)CNC(=O)[C@H]([C@@H](C)O)NC3=O)NC1=O [Dephospho-Peptide 2, CCSLCCNPACTGC] (H-CCSLCCNPACTGC-OH; disulfide 1-6, 2-10, 5-13 (inferred); N-terminus and C-terminus assumed) | not metabolized | degraded faster |  |  |  |  | 
CC(C)C[C@@H]1NC(=O)[C@H](COP(=O)(O)O)NC(=O)[C@@H]2CSSC[C@@H]3NC(=O)[C@H](C)NC(=O)[C@@H]4CCCN4C(=O)[C@H](CC(N)=O)NC(=O)[C@H](CSSC[C@H](N)C(=O)N2)NC(=O)[C@H](CSSC[C@@H](C(=O)N[C@@H](Cc2ccc(O)cc2)C(=O)O)NC(=O)CNC(=O)[C@H]([C@@H](C)O)NC3=O)NC1=O [Peptide 1, CCpSLCCNPACTGCY] (H-CC[pS]LCCNPACTGCY-OH; disulfide 1-6, 2-10, 5-13 (inferred); N-terminus and C-terminus assumed) |  |  | 22.1% | 100% | 0% | 6.2% | 
CC(C)C[C@@H]1NC(=O)[C@H](COP(=O)(O)O)NC(=O)[C@@H]2CSSC[C@@H]3NC(=O)[C@H](C)NC(=O)[C@@H]4CCCN4C(=O)[C@H](CC(N)=O)NC(=O)[C@H](CSSC[C@H](N)C(=O)N2)NC(=O)[C@H](CSSC[C@@H](C(=O)O)NC(=O)CNC(=O)[C@H]([C@@H](C)O)NC3=O)NC1=O [Peptide 2, CCpSLCCNPACTGC] (H-CC[pS]LCCNPACTGC-OH; disulfide 1-6, 2-10, 5-13 (inferred); N-terminus and C-terminus assumed) | not metabolized |  |  | 100% |  | 4.1% | metabolite formed ([1]; mouse jejunum fluid, increased for the first 20 minutes then slow decrease): dephospho-peptide 2
CC(C)C[C@@H]1NC(=O)[C@H](CCC(=O)O)NC(=O)[C@@H]2CSSC[C@@H]3NC(=O)[C@H](C)NC(=O)[C@@H]4CCCN4C(=O)[C@H](CC(N)=O)NC(=O)[C@H](CSSC[C@H](N)C(=O)N2)NC(=O)[C@H](CSSC[C@@H](C(=O)N[C@@H](Cc2ccc(O)cc2)C(=O)O)NC(=O)CNC(=O)[C@H]([C@@H](C)O)NC3=O)NC1=O [Peptide 3, CCELCCNPACTGCY] (H-CCELCCNPACTGCY-OH; disulfide 1-6, 2-10, 5-13 (inferred); N-terminus and C-terminus assumed) | not metabolized | degraded faster |  |  |  |  | Effect of CIP treatment on the peptide (LC-MS) ([3]; with and without calf intestinal alkaline phosphatase, data not shown): not affected; peptide detected after 90 minutes ([1]; mouse jejunum fluid, 100 μg/mL peptide): not detected
C[C@@H]1NC(=O)[C@@H]2CCCN2C(=O)[C@H](CC(N)=O)NC(=O)[C@@H]2CSSC[C@H](N)C(=O)N[C@H]3CSSC[C@H](NC1=O)C(=O)N[C@@H]([C@@H](C)O)C(=O)NCC(=O)N[C@H](C(=O)N[C@@H](Cc1ccc(O)cc1)C(=O)O)CSSC[C@H](NC(=O)[C@H](Cc1ccc(O)cc1)NC(=O)[C@H](CCC(=O)O)NC3=O)C(=O)N2 [linaclotide, Linaclotide] (H-CCEYCCNPACTGCY-OH; disulfide 1-6, 2-10, 5-13) |  |  |  |  |  |  | levels seen systemically [5]: no detectable levels
O=[N+]([O-])c1ccc(OP(=O)(O)O)cc1 [p-nitrophenylphosphate] |  |  | 100% | 100% | 0% | 100% | Remaining (%) [2]: 0%; Remaining (%) [4]: 0%

Source: patent publication US20160213739A1, “TREATMENTS FOR DISORDERS USING GUANYLATE CYCLASE C AGONISTS” (Ironwood Pharmaceuticals, Inc., priority 2011, published 2016)
